Results on one compound are retold here after publication PMC7139549, “TLD1433 Photosensitizer Inhibits Conjunctival Melanoma Cells in Zebrafish Ectopic and Orthotopic Tumour Models” (Cancers, 2020).

In experiment [1] the test system is A375 cutaneous melanoma cell line. The experiment can be described thus: SRB cell viability assay, A375. Format: cell-based, Human. As to the method: TLD1433 is known to generate reactive oxygen species (ROS) with high quantum efficacy in many cancer cell lines. However, there is no report of the in vitro toxicity of this compound in eye melanoma (UM) cell lines. We determined the cell viability of three conjunctival melanoma cell lines (CRMM1, CRMM2 and CM2005.1), and three uveal melanoma cell lines (OMM1, OMM2.5, MEL270) in the presence of TLD1433, both in the dark or under green light irradiation (21 mW/cm^2, 19 J/cm^2, 520 nm, 15 min), and compared this viability to epidermoid carcinoma A431 and cutaneous melanoma A375 cell lines under the same conditions. […] The phototoxicity index (PI), defined as the ratio of the dark EC50 to the light EC50, was also calculated and represents the amplification of TLD1433 activity with a light trigger. […]
(§1) Figure 2 Cell viability after TLD1433 treatment of eight tumour cell lines (CRMM1, CRMM2, CM2005.1, OMM1, OMM2.5, MEL270, A431, A375). […] The absorbance of Sulforhodamine B in solution was measured at 520 nm. […]
(§2) At day 0, cells were detached using 1mL of trypsin, resuspended in 4 mL of media and transferred to a 15 mL corning falcon tube. Cells were counted using trypan blue and BioRad® TC20™ automated cell counter (Figure 11). […] Next day, the dye was dissolved using Tri-base (0.25%) and absorbance of SRB at 510 nm was recorded from each well using a Tecan plate reader. […]

In experiment [2] the test system is OMM1 uveal melanoma cell line. The experiment can be described thus: SRB cell viability assay, OMM1. Format: cell-based, Human. As to the method:
TLD1433 is known to generate reactive oxygen species (ROS) with high quantum efficacy in many cancer cell lines. However, there is no report of the in vitro toxicity of this compound in eye melanoma (UM) cell lines. We determined the cell viability of three conjunctival melanoma cell lines (CRMM1, CRMM2 and CM2005.1), and three uveal melanoma cell lines (OMM1, OMM2.5, MEL270) in the presence of TLD1433, both in the dark or under green light irradiation (21 mW/cm^2, 19 J/cm^2, 520 nm, 15 min), and compared this viability to epidermoid carcinoma A431 and cutaneous melanoma A375 cell lines under the same conditions. The protocol used was based on previous work from the Bonnet group, and differed slightly from recommendations from McFarland et al.. […] The effective concentration (EC50) values, i.e., the concentration required to reduce cell viability by 50% compared to untreated wells, were assessed by fitting the dose-response curves with a Hill equation. The phototoxicity index (PI), defined as the ratio of the dark EC50 to the light EC50, was also calculated and represents the amplification of TLD1433 activity with a light trigger. […]
as §1
as §2, with “11). Dilutions of 6000 (CRMM1), 6000 (CRMM2), 8000 (CM2005.1), 6000 (OMM1), 6000 (OMM2.5), 6000 (MEL270) 8000 (A431), and 4000 (A375) cells/well were calculated from each cell suspension at a final volume of 6 mL using the following formula: Vc=(Vt×10C)/Lc where Vt = total volume of solution, C = number of cells per well/per 100 μL and Lc = live cells count (cells/mL).” for “11).”

Like-named read-outs stand apart in the source and are kept apart here.

Usually EC50 stands for the concentration that produces a half-maximal response. Regarding `Cc1ccnc(-c2cc(C)ccn2)c1.Cc1ccnc(-c2cc(C)ccn2)c1.[Cl-].[Cl-].[Ru+2].c1csc(-c2ccc(-c3ccc(-c4nc5c6cccnc6c6ncccc6c5[nH]4)s3)s2)c1` [TLD1433], the EC50 in experiment [1] (A375, dark, 24 h treatment, SRB, read-out: EC50, dark) is greater than 5000 nM; in experiment [1] (A375, green light 520 nm, 15 min, 21 mW/cm^2, 19 J.cm^−2, DLI 24 h, read-out: EC50,light), 50 nM; in experiment [2] (OMM1, dark, 24 h treatment, SRB, read-out: EC50, dark), 1400 nM; in experiment [2] (OMM1, green light 520 nm, 15 min, 21 mW/cm^2, 19 J.cm^−2, DLI 24 h, read-out: EC50,light) it was 14 nM. Further, the “PI (photo index)” value in experiment [2] (OMM1, ratio of dark and light EC50, 19 J.cm^−2 green light) amounted to 100.
